This is an account of results in US9062071B2, “Substituted piperidines as HDM2 inhibitors” (Merck Sharp & Dohme Corp, priority 2011, dated 2015).

The target in this experiment is HDM2 protein (Homo sapiens, UniProt Q00987). Description: fluorescence polarization screening assay (FP IC50). In kind it is binding. The note with it: class symbols. On the procedure: The compounds were evaluated to determine activity at the HDM2 protein by known methods such as the fluorescence polarization screening assay that measures the inhibitory concentration that achieves 50% of maximal activity (FP IC50) and the dissociation constant for inhibitor binding (FP Ki). [Zhang et al., J. Analytical Biochemistry 331: 138-146 (2004)].
HDM2 protein, sequence (Q00987 whole entry): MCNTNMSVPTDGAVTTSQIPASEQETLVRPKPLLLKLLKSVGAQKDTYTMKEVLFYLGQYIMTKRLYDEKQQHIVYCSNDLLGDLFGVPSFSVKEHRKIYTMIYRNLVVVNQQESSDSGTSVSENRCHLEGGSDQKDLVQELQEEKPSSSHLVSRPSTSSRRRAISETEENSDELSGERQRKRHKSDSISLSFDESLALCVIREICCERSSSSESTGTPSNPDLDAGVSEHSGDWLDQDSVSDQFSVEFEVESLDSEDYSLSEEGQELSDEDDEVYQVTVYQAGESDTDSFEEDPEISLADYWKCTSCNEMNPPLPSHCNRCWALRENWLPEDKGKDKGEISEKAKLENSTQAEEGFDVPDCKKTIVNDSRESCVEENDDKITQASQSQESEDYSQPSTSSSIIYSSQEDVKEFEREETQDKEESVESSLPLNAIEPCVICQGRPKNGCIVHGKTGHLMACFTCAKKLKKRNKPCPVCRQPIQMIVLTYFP
In general terms: Fluorescence polarisation rises when a labelled molecule tumbles more slowly, as on binding a larger partner.

`CCC[C@H]1N(C(=O)c2ncccc2C(F)(F)F)CCC[C@@]1(Oc1csc(C(F)(F)F)c1)C(=O)N1Cc2sc(Cl)cc2CC1C(=O)O` (stereo partly drawn) [Compound A172, 2-chloro-6-{[(2R,3S)-2-propyl-1-{[3-(trifluoromethyl)pyridin-2-yl]carbonyl}-3-{[5-(trifluoromethyl)thiophen-3-yl]oxy}piperidin-3-yl]carbonyl}-4,5,6,7-tetrahydrothieno[2,3-c]pyridine-5-carboxylic acid] came in with an IC50 of 1 to 100 nM. The compound `CCC[C@H]1N(C(=O)c2ncccc2C(F)(F)F)CCC[C@@]1(Oc1csc(C(F)(F)F)c1)C(=O)N1Cc2sccc2CC1C(=O)O` (stereo partly drawn) [Compound A173, 6-{[(2R,3S)-2-propyl-1-{[3-(trifluoromethyl)pyridin-2-yl]carbonyl}-3-{[5-(trifluoromethyl)thiophen-3-yl]oxy}piperidin-3-yl]carbonyl}-4,5,6,7-tetrahydrothieno[2,3-c]pyridine-5-carboxylic acid] registered an IC50 of 101 to 20000 nM. In turn, `CCC[C@H]1N(C(=O)c2ncccc2C(F)(F)F)CCC[C@@]1(Oc1csc(C(F)(F)F)c1)C(=O)N1Cc2sc(Cl)cc2CC1C(=O)O` (stereo partly drawn) [Compound A174, 2-chloro-6-{[(2R,3S)-2-propyl-1-{[3-(trifluoromethyl)pyridin-2-yl]carbonyl}-3-{[5-(trifluoromethyl)thiophen-3-yl]oxy}piperidin-3-yl]carbonyl}-4,5,6,7-tetrahydrothieno[2,3-c]pyridine-5-carboxylic acid] yielded an IC50 of 1 to 100 nM.

In turn, `CCC[C@H]1N(C(=O)c2ncccc2C(F)(F)F)CCC[C@@]1(Oc1csc(C(F)(F)F)c1)C(=O)N1Cc2sc(Br)cc2C[C@H]1C(=O)NS(C)(=O)=O` [Compound A175, (5S)-2-bromo-N-(methylsulfonyl)-6-{[(2R,3S)-2-propyl-1-{[3-(trifluoromethyl)pyridin-2-yl]carbonyl}-3-{[5-(trifluoromethyl)thiophen-3-yl]oxy}piperidin-3-yl]carbonyl}-4,5,6,7-tetrahydrothieno[2,3-c]pyridine-5-carboxamide] registered an IC50 of 1 to 100 nM. Consider `CCC[C@H]1N(C(=O)c2ncccc2C(F)(F)F)CCC[C@@]1(Oc1csc(C(F)(F)F)c1)C(=O)N1CCc2cc(Cl)ccc2C1CC(C)C` (stereo partly drawn) [Compound A176, 6-chloro-1-(2-methylpropyl)-2-{[(2R,3S)-2-propyl-1-{[3-(trifluoromethyl)pyridin-2-yl]carbonyl}-3-{[5-(trifluoromethyl)thiophen-3-yl]oxy}piperidin-3-yl]carbonyl}-1,2,3,4-tetrahydroisoquinoline], for which the IC50 lay within 101 to 20000 nM. As for `CCC[C@H]1N(C(=O)c2ncccc2C(F)(F)F)CCC[C@@]1(Oc1csc(C(F)(F)F)c1)C(=O)N1CCc2cc(Cl)ccc2C1CC(C(=O)O)C(C)C` (stereo partly drawn) [Compound A177, 2-[(6-chloro-2-{[(2R,3S)-2-propyl-1-{[3-(trifluoromethyl)pyridin-2-yl]carbonyl}-3-{[5-(trifluoromethyl)thiophen-3-yl]oxy}piperidin-3-yl]carbonyl}-1,2,3,4-tetrahydroisoquinolin-1-yl)methyl]-3-methylbutanoic acid], the IC50 lay in the range of 101 to 20000 nM. With `CCC[C@H]1N(C(=O)c2ncccc2C(F)(F)F)CCC[C@@]1(Oc1csc(C(F)(F)F)c1)C(=O)N1CCc2cc(Cl)ccc2C1CC(C(=O)O)C(C)C` (stereo partly drawn) [Compound A178, 2-[(6-chloro-2-{[(2R,3S)-2-propyl-1-{[3-(trifluoromethyl)pyridin-2-yl]carbonyl}-3-{[5-(trifluoromethyl)thiophen-3-yl]oxy}piperidin-3-yl]carbonyl}-1,2,3,4-tetrahydroisoquinolin-1-yl)methyl]-3-methylbutanoic acid], the IC50 is 1 to 100 nM. In turn, `CCC[C@H]1N(C(=O)c2ncccc2C(F)(F)F)CCC[C@@]1(Oc1csc(C(F)(F)F)c1)C(=O)N1CCc2cc(Cl)ccc2C1CC(C(=O)O)C(C)C` (stereo partly drawn) [Compound A179, 2-[(6-chloro-2-{[(2R,3S)-2-propyl-1-{[3-(trifluoromethyl)pyridin-2-yl]carbonyl}-3-{[5-(trifluoromethyl)thiophen-3-yl]oxy}piperidin-3-yl]carbonyl}-1,2,3,4-tetrahydroisoquinolin-1-yl)methyl]-3-methylbutanoic acid] had an IC50 of 1 to 100 nM. `CCC[C@H]1N(C(=O)c2ncccc2C(F)(F)F)CCC[C@@]1(Oc1csc(C(F)(F)F)c1)C(=O)N1CCc2cc(Cl)ccc2C1CC(C(=O)O)C(C)C` (stereo partly drawn) [Compound A180, 2-[(6-chloro-2-{[(2R,3S)-2-propyl-1-{[3-(trifluoromethyl)pyridin-2-yl]carbonyl}-3-{[5-(trifluoromethyl)thiophen-3-yl]oxy}piperidin-3-yl]carbonyl}-1,2,3,4-tetrahydroisoquinolin-1-yl)methyl]-3-methylbutanoic acid]: the IC50 fell in the range of 101 to 20000 nM. Regarding `CCC[C@H]1N(C(=O)c2ncccc2C(F)(F)F)CCC[C@@]1(Oc1csc(C(F)(F)F)c1)C(=O)N1CCc2cc(Cl)ccc2C1COCC(=O)O` (stereo partly drawn) [Compound A181, [(6-chloro-2-{[(2R,3S)-2-propyl-1-{[3-(trifluoromethyl)pyridin-2-yl]carbonyl}-3-{[5-(trifluoromethyl)thiophen-3-yl]oxy}piperidin-3-yl]carbonyl}-1,2,3,4-tetrahydroisoquinolin-1-yl)methoxy]acetic acid], the 50% inhibitory concentration (IC50) lay in the range of 1 to 100 nM.

What is called IC50 is the midpoint of a concentration-inhibition curve. Read a low IC50 as higher potency.
